Test results reported in patent US20200354426A1 (MEDIMMUNE LIMITED, priority 2016, published 2020).
Numbered stars: 1 amine (or outer) side, 2 acyl side, 3 side chain; on linkers, the order of the positions; unused ones are H or OH. Side chains are listed from the residue outwards. Peptide text beside a SMILES is read from it. * marks the point of attachment. γGlu = O=C(O)[C@H](CCC(=O)[*:2])N[*:1]; Palmitoyl = CCCCCCCCCCCCCCCC(=O)*

Columns and labels:
Assay in all cases: cAMP activity assay in assay medium (assay 1)
Assay type in all cases: cell-based
Human GlucR = target: T1, Human GlucR (Homo sapiens, UniProt P47871); details: assay medium; Table 4; read-out: hGlucR EC50
T1 construct: expressed in transfected cells
T1 sequence (P47871 26-477): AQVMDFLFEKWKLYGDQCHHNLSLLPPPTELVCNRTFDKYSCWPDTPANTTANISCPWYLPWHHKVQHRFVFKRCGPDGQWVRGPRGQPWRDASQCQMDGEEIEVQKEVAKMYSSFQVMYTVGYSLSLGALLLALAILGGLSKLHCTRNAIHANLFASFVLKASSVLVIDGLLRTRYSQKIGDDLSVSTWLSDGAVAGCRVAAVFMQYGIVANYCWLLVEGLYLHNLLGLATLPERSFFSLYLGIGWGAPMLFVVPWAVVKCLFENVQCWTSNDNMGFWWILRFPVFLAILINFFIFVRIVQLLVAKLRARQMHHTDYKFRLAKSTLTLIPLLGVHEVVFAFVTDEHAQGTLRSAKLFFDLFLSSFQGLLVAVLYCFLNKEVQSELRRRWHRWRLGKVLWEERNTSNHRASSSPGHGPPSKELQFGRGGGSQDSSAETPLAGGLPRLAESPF
Description: (§1) Biological Activity of Peptides in Cell-Based cAMP Activity Assay (Assay 1):
(§2) All sample dilutions were made in duplicate.

Human GIPr = target: T2, Human GIPr (Homo sapiens, UniProt P48546); details: assay medium; Table 4; read-out: hGIPR EC50
T2 construct: expressed in transfected cells
T2 sequence (P48546 22-466): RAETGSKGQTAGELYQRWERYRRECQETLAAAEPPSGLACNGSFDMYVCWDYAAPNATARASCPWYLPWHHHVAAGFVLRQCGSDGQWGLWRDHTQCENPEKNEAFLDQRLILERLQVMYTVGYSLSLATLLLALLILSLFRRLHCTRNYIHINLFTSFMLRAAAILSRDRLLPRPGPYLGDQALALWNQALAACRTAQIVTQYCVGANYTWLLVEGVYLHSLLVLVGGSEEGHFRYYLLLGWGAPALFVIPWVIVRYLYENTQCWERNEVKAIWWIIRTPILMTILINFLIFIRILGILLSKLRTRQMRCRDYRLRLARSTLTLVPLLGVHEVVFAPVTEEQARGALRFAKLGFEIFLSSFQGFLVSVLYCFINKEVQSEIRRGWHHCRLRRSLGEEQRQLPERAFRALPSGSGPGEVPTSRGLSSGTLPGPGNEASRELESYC
Description: as §1, §2

Human GLP1R = Human GLP1R (Homo sapiens, UniProt P43220); parameters: expressed in transfected cells; details: assay medium; Table 4; read-out: hGLP1R EC50
Sequence of Human GLP1R (P43220 24-463): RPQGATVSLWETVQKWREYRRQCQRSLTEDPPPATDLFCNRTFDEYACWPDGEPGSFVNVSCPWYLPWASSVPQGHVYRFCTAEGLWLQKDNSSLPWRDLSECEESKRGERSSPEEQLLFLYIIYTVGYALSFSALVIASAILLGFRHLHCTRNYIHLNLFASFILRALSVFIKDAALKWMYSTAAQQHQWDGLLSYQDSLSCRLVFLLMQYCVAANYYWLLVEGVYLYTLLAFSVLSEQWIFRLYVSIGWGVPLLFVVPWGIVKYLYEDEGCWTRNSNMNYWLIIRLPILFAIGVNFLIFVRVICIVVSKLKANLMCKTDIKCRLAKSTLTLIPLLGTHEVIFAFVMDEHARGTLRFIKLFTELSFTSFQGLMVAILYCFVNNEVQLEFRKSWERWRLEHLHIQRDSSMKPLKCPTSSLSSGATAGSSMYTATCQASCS
Description: as §1, §2

Row | Structure (SMILES) | EC50 (Human GlucR) | EC50 (Human GIPr) | EC50 (Human GLP1R)
1 | CCCCCCCCCCCCCCCC(=O)N[C@@H](CCC(=O)NCCCC[C@H](NC(=O)[C@H](CO)NC(=O)[C@H](CC(=O)O)NC(=O)[C@H](CC(C)C)NC(=O)[C@H](Cc1ccc(O)cc1)NC(=O)[C@H](CCC(=O)O)NC(=O)[C@H](CO)NC(=O)[C@H](Cc1ccc(O)cc1)NC(=O)[C@H](CC(=O)O)NC(=O)[C@H](CO)NC(=O)[C@@H](NC(=O)[C@H](Cc1ccccc1)NC(=O)[C@@H](NC(=O)CNC(=O)[C@H](CCC(N)=O)NC(=O)CNC(=O)[C@@H](N)Cc1c[nH]cn1)[C@@H](C)O)[C@@H](C)O)C(=O)N[C@@H](CCCNC(=N)N)C(=O)N[C@@H](C)C(=O)N[C@@H](CCCNC(=N)N)C(=O)N[C@@H](CC(=O)O)C(=O)N[C@@H](Cc1ccccc1)C(=O)N[C@H](C(=O)N[C@@H](C)C(=O)N[C@@H](Cc1c[nH]c2ccccc12)C(=O)N[C@@H](CC(C)C)C(=O)N[C@H](C(=O)N[C@@H](C)C(=O)NCC(=O)NCC(N)=O)C(C)C)C(C)C)C(=O)O [g675] (H-HGQGTFTSDYSEYLDSK([γGlu-Palmitoyl])RARDFVAWLVAGG-NH2; N-terminus assumed) | 38.4 nM | 1610 nM | 0.151 nM
2 | CCCCCCCCCCCCCCCC(=O)NCCCC[C@H](NC(=O)[C@H](CO)NC(=O)[C@@H]1CCCN1C(=O)[C@@H]1CCCN1C(=O)[C@@H]1CCCN1C(=O)[C@H](C)NC(=O)CNC(=O)[C@H](CO)NC(=O)[C@H](CO)NC(=O)[C@@H]1CCCN1C(=O)CNC(=O)CNC(=O)[C@H](CCCNC(=N)N)NC(=O)[C@@H](NC(=O)[C@H](CC(C)C)NC(=O)[C@H](Cc1c[nH]c2ccccc12)NC(=O)[C@H](CCC(N)=O)NC(=O)[C@@H](NC(=O)[C@H](Cc1ccccc1)NC(=O)[C@H](CC(=O)O)NC(=O)[C@H](CCC(N)=O)NC(=O)[C@H](C)NC(=O)[C@H](CCCNC(=N)N)NC(=O)[C@H](CCCNC(=N)N)NC(=O)[C@H](CO)NC(=O)[C@H](CC(=O)O)NC(=O)[C@H](CC(C)C)NC(=O)[C@H](Cc1ccc(O)cc1)NC(=O)[C@H](CCCCN)NC(=O)[C@H](CO)NC(=O)[C@H](Cc1ccc(O)cc1)NC(=O)[C@H](CC(=O)O)NC(=O)[C@H](CO)NC(=O)[C@@H](NC(=O)[C@H](Cc1ccccc1)NC(=O)[C@@H](NC(=O)CNC(=O)[C@H](CCC(N)=O)NC(=O)[C@H](CO)NC(=O)[C@@H](N)Cc1c[nH]cn1)[C@@H](C)O)[C@@H](C)O)C(C)C)C(C)C)C(N)=O [g320] (H-HSQGTFTSDYSKYLDSRRAQDFVQWLVRGGPSSGAPPPSK(Palmitoyl)-NH2; N-terminus assumed) | 0.0032 nM | 1.01 nM | 0.00938 nM
3 | CCCCCCCCCCCCCCCC(=O)N[C@@H](CCC(=O)NCCCC[C@H](NC(=O)[C@H](CCCNC(=N)N)NC(=O)[C@H](CO)NC(=O)[C@H](CC(=O)O)NC(=O)[C@H](CC(C)C)NC(=O)[C@H](Cc1ccc(O)cc1)NC(=O)[C@H](CCCCN)NC(=O)[C@H](CO)NC(=O)[C@H](Cc1ccc(O)cc1)NC(=O)[C@H](CC(=O)O)NC(=O)[C@H](CO)NC(=O)[C@@H](NC(=O)[C@H](Cc1ccccc1)NC(=O)[C@@H](NC(=O)CNC(=O)[C@H](CCC(N)=O)NC(=O)[C@H](CO)NC(=O)[C@@H](N)Cc1c[nH]cn1)[C@@H](C)O)[C@@H](C)O)C(=O)N[C@@H](C)C(=O)N[C@@H](CCCNC(=N)N)C(=O)N[C@@H](CC(=O)O)C(=O)N[C@@H](Cc1ccccc1)C(=O)N[C@H](C(=O)N[C@@H](C)C(=O)N[C@@H](Cc1c[nH]c2ccccc12)C(=O)N[C@@H](CC(C)C)C(=O)N[C@@H](CCC(=O)O)C(=O)N[C@@H](C)C(=O)NCC(=O)NCC(N)=O)C(C)C)C(=O)O [g782] (H-HSQGTFTSDYSKYLDSRK([γGlu-Palmitoyl])ARDFVAWLEAGG-NH2; N-terminus assumed) | 0.156 nM | 1430 nM | 0.0254 nM
